Source: paper PMC5811606, “Characterization of ^111In-labeled Glucose-Dependent Insulinotropic Polypeptide as a Radiotracer for Neuroendocrine Tumors” (Scientific Reports, 2018)
Where two headings read alike, the source gives them in different places.

What was measured:
[1] = Biodistribution study, BHK-GIPR tumor mice; type: in vivo, BALB/c nude mice; conditions: female, mouse, iv, total radioactivity, BHK-GIPR tumor BALB/c nude mice, i.v., 0.2 µg, mean n=5; for tissue to tissue ratio at 1 h: 1 h p.i.; for tissue to tissue ratio at 24 h: 24 h p.i.
Description: (§1) All animal experiments were approved by the Animal Welfare Body of the Radboud University, Nijmegen, The Netherlands and carried out in accordance with their guidelines. Six to eight weeks old, female BALB/c nude mice and C3H mice were purchased from Janvier labs (Le Genest Saint Isle, France). For all in vivo experiments, 6-8 weeks old female BALB/c nude mice were injected subcutaneously in the right shoulder with 0.2 ml of a 2.5 × 10^7 cells/ml suspension of BHK-GIPR transfected cells or with 0.2 ml of a 2.5 × 10^7 cells/ml suspension of NES2Y cells mixed with matrigel (2:1) in the right shoulder. When the tumor reached a diameter of 2-5 mm, mice were randomly divided in groups.
(§2) BALB/c nude mice bearing BHK-GIPR transfected tumors were injected intravenously with approximately 3 MBq (peptide dose 0.2 µg = 0.04 nmol) of [Lys^37(^111In-DTPA)]N-acetyl-GIP1-42 via the tail vein. At various time points after injection (1, 4 and 24 hours), mice were euthanized by CO2/O2 suffocation and blood, tumor and other relevant tissues were dissected, weighed and measured in a well type gamma counter. The percentage injected dose per gram (%ID/g) was calculated for each tissue. To determine whether the GIP1-42 uptake was GIPR mediated, 25 µg of unlabeled GIP1-42 was co-injected in a separate group (n = 5) and mice were euthanized four hours post-injection. BALB/c nude mice bearing NES2Y tumors (n = 5) were injected intravenously with approximately 3 MBq (peptide dose 0.2 µg = 0.04 nmol) of [Lys^37(^111In-DTPA)]N-acetyl-GIP1-42 via the tail vein. One hour after injection, mice were euthanized by CO2/O2 suffocation and blood, tumor and other relevant tissues were dissected, weighed and measured in a well type gamma counter. The percentage injected dose per gram (%ID/g) was determined for each tissue. To determine whether the GIP1-42 uptake was GIPR mediated, 25 µg of unlabeled GIP1-42 was co-injected in a separate group (n = 2) and mice were euthanized one hours post-injection.

[2] = test system: subcutaneous BHK-GIPR tumors; assay: Biodistribution study, BHK-GIPR tumor mice; type: in vivo, BALB/c nude mice; conditions: biodistribution studies in BALB/c nude mice, i.v.
Description: as §1, §2

[3] = Biodistribution study, NES2Y tumor mice; type: in vivo; conditions: female, mouse, iv, total radioactivity, i.v., 0.2 µg; for tissue uptake at 1 h: BALB/c nude; for tissue to tissue ratio at 1 h: NES2Y tumor BALB/c nude mice
Description: as §1, §2

[4] = tumor/heart, 0.2 ug, read-out: Tumor/Heart
[5] = tumor/kidney, 0.2 ug, read-out: Tumor/Kidney
[6] = tumor/muscle, 0.2 ug, read-out: Tumor/Muscle

## CC[C@H](C)[C@H](NC(=O)[C@H](CO)NC(=O)[C@H](Cc1ccc(O)cc1)NC(=O)[C@H](CC(=O)O)NC(=O)[C@H](CO)NC(=O)[C@@H](NC(=O)[C@H](Cc1ccccc1)NC(=O)[C@@H](NC(=O)CNC(=O)[C@H](CCC(=O)O)NC(=O)[C@H](C)NC(=O)[C@H](Cc1ccc(O)cc1)NC(C)=O)[C@@H](C)O)[C@@H](C)CC)C(=O)N[C@@H](C)C(=O)N[C@@H](CCSC)C(=O)N[C@@H](CC(=O)O)C(=O)N[C@@H](CCCCN)C(=O)N[C@H](C(=O)N[C@@H](Cc1c[nH]cn1)C(=O)N[C@@H](CCC(N)=O)C(=O)N[C@@H](CCC(N)=O)C(=O)N[C@@H](CC(=O)O)C(=O)N[C@@H](Cc1ccccc1)C(=O)N[C@H](C(=O)N[C@@H](CC(N)=O)C(=O)N[C@@H](Cc1c[nH]c2ccccc12)C(=O)N[C@@H](CC(C)C)C(=O)N[C@@H](CC(C)C)C(=O)N[C@@H](C)C(=O)N[C@@H](CCC(N)=O)C(=O)N[C@@H](CCCCN)C(=O)NCC(=O)N[C@@H](CCCCN)C(=O)N[C@@H](CCCCN)C(=O)N[C@@H](CC(N)=O)C(=O)N[C@@H](CC(=O)O)C(=O)N[C@@H](Cc1c[nH]c2ccccc12)C(=O)N[C@@H](CCCCNC(=O)CN(CCN(CCN(CC(=O)O)CC(=O)O)CC(=O)O)CC(=O)O)C(=O)N[C@@H](Cc1c[nH]cn1)C(=O)N[C@@H](CC(N)=O)C(=O)N[C@H](C(=O)N[C@H](C(=O)N[C@@H](CCC(N)=O)C(=O)O)[C@@H](C)O)[C@@H](C)CC)C(C)C)[C@@H](C)CC [[Lys^37(^111In-DTPA)]N-acetyl-GIP1-42, metal not drawn]
[1]; tumor/blood, 4 h p.i. + xs (25 µg unlabeled GIP1-42), read-out: Tumor/Blood
  tissue to tissue ratio at 4 h: 29.8
[1]; [4]
  tissue to tissue ratio at 1 h: 23.6
  tissue to tissue ratio at 24 h: 25.5
[1]; tumor/heart, 0.2 ug, 4 h p.i., read-out: Tumor/Heart
  tissue to tissue ratio at 4 h: 29
[1]; tumor/heart, 4 h p.i. + xs (25 µg unlabeled GIP1-42), read-out: Tumor/Heart
  tissue to tissue ratio at 4 h: 8.89
[1]; [5]
  tissue to tissue ratio at 1 h: 0.023
  tissue to tissue ratio at 24 h: 0.011
[1]; tumor/kidney, 0.2 ug, 4 h p.i., read-out: Tumor/Kidney
  tissue to tissue ratio at 4 h: 0.014
[1]; tumor/kidney, 4 h p.i. + xs (25 µg unlabeled GIP1-42), read-out: Tumor/Kidney
  tissue to tissue ratio at 4 h: 0.004
[1]; tumor/lung, 0.2 ug, read-out: Tumor/Lung
  tissue to tissue ratio at 1 h: 8.64
[1]; tumor/lung, 0.2 ug, 4 h p.i., read-out: Tumor/Lung
  tissue to tissue ratio at 4 h: 10.1
[1]; tumor/lung, 4 h p.i. + xs (25 µg unlabeled GIP1-42), read-out: Tumor/Lung
  tissue to tissue ratio at 4 h: 2.68
[1]; [6]
  tissue to tissue ratio at 1 h: 35
  tissue to tissue ratio at 24 h: 36.4
[1]; tumor/muscle, 0.2 ug, 4 h p.i., read-out: Tumor/Muscle
  tissue to tissue ratio at 4 h: 40.4
[1]; tumor/muscle, 4 h p.i. + xs (25 µg unlabeled GIP1-42), read-out: Tumor/Muscle
  tissue to tissue ratio at 4 h: 12.4
[2]
  blood clearance: cleared from the blood very rapidly
[3]; NES2Y tumor, 0.2 ug, 1 h p.i., mean n=5, read-out: Tumor uptake
  tissue uptake at 1 h: 0.7 ± 0.2 %ID/g
[3]; NES2Y tumor, 1 h p.i. + xs (25 µg unlabeled GIP1-42), mean, n=5, read-out: Tumor uptake
  tissue uptake at 1 h: 0.6 ± 0.01 %ID/g
[3]; duodenum, 0.2 ug, 1 h p.i., mean n=5, read-out: Duodenum uptake
  tissue uptake at 1 h: 0.42 %ID/g
[3]; duodenum, 1 h p.i. + xs (25 µg unlabeled GIP1-42), mean, n=5, read-out: Duodenum uptake
  tissue uptake at 1 h: 0.369 %ID/g
[3]; heart, 0.2 ug, 1 h p.i., mean n=5, read-out: Heart uptake
  tissue uptake at 1 h: 0.135 %ID/g
[3]; heart, 1 h p.i. + xs (25 µg unlabeled GIP1-42), mean, n=5, read-out: Heart uptake
  tissue uptake at 1 h: 0.103 %ID/g
[3]; kidney, 0.2 ug, 1 h p.i., mean n=5, read-out: Kidney uptake
  tissue uptake at 1 h: 184 %ID/g
[3]; kidney, 1 h p.i. + xs (25 µg unlabeled GIP1-42), mean, n=5, read-out: Kidney uptake
  tissue uptake at 1 h: 180 %ID/g
[3]; liver, 0.2 ug, 1 h p.i., mean n=5, read-out: Liver uptake
  tissue uptake at 1 h: 1.1 %ID/g
[3]; liver, 1 h p.i. + xs (25 µg unlabeled GIP1-42), mean, n=5, read-out: Liver uptake
  tissue uptake at 1 h: 0.827 %ID/g
[3]; lung, 0.2 ug, 1 h p.i., mean n=5, read-out: Lung uptake
  tissue uptake at 1 h: 0.485 %ID/g
[3]; lung, 1 h p.i. + xs (25 µg unlabeled GIP1-42), mean, n=5, read-out: Lung uptake
  tissue uptake at 1 h: 0.474 %ID/g
[3]; muscle, 0.2 ug, 1 h p.i., mean n=5, read-out: Muscle uptake
  tissue uptake at 1 h: 0.069 %ID/g
[3]; muscle, 1 h p.i. + xs (25 µg unlabeled GIP1-42), mean, n=5, read-out: Muscle uptake
  tissue uptake at 1 h: 0.057 %ID/g
[3]; pancreas, 0.2 ug, 1 h p.i., mean n=5, read-out: Pancreas uptake
  tissue uptake at 1 h: 0.201 %ID/g
[3]; pancreas, 1 h p.i. + xs (25 µg unlabeled GIP1-42), mean, n=5, read-out: Pancreas uptake
  tissue uptake at 1 h: 0.158 %ID/g
[3]; spleen, 0.2 ug, 1 h p.i., mean n=5, read-out: Spleen uptake
  tissue uptake at 1 h: 0.462 %ID/g
[3]; spleen, 1 h p.i. + xs (25 µg unlabeled GIP1-42), mean, n=5, read-out: Spleen uptake
  tissue uptake at 1 h: 0.341 %ID/g
[3]; stomach, 0.2 ug, 1 h p.i., mean n=5, read-out: Stomach uptake
  tissue uptake at 1 h: 0.336 %ID/g
[3]; stomach, 1 h p.i. + xs (25 µg unlabeled GIP1-42), mean, n=5, read-out: Stomach uptake
  tissue uptake at 1 h: 0.283 %ID/g
[3]; whole blood, 0.2 ug, 1 h p.i., mean n=5, read-out: Blood uptake
  tissue uptake at 1 h: 0.175 %ID/g
[3]; whole blood, 1 h p.i. + xs (25 µg unlabeled GIP1-42), mean, n=5, read-out: Blood uptake
  tissue uptake at 1 h: 0.214 %ID/g
[3]; tumor and blood, 0.2 ug, 1 h p.i., mean n=5, read-out: Tumor/Blood
  tissue to tissue ratio at 1 h: 3.96
[3]; tumor and blood, 1 h p.i. + xs (25 µg unlabeled GIP1-42), mean, n=5, read-out: Tumor/Blood
  tissue to tissue ratio at 1 h: 3.01
[3]; tumor and heart, 0.2 ug, 1 h p.i., mean n=5, read-out: Tumor/Heart
  tissue to tissue ratio at 1 h: 4.83
[3]; tumor and heart, 1 h p.i. + xs (25 µg unlabeled GIP1-42), mean, n=5, read-out: Tumor/Heart
  tissue to tissue ratio at 1 h: 6.09
[3]; tumor and kidney, 0.2 ug, 1 h p.i., mean n=5, read-out: Tumor/Kidney
  tissue to tissue ratio at 1 h: 0.004
[3]; tumor and kidney, 1 h p.i. + xs (25 µg unlabeled GIP1-42), mean, n=5, read-out: Tumor/Kidney
  tissue to tissue ratio at 1 h: 0.004
[3]; tumor and lung, 0.2 ug, 1 h p.i., mean n=5, read-out: Tumor/Lung
  tissue to tissue ratio at 1 h: 1.38
[3]; tumor and lung, 1 h p.i. + xs (25 µg unlabeled GIP1-42), mean, n=5, read-out: Tumor/Lung
  tissue to tissue ratio at 1 h: 1.33
[3]; tumor and muscle, 0.2 ug, 1 h p.i., mean n=5, read-out: Tumor/Muscle
  tissue to tissue ratio at 1 h: 9.43
[3]; tumor and muscle, 1 h p.i. + xs (25 µg unlabeled GIP1-42), mean, n=5, read-out: Tumor/Muscle
  tissue to tissue ratio at 1 h: 11.1
